Source: patent US20240108623A1, “METHODS OF TREATING CANCER WITH POZIOTINIB” (BOARD OF REGENTS, THE UNIVERSITY OF TEXAS SYSTEM, priority 2021, published 2024)

Tests used:
Experiment in all cases: Ba/F3 cell drug screening, Cell Titer Glo
Assay type in all cases: cell-based
EGFR D761N = biological target: T1, EGFR D761N (Homo sapiens, UniProt P00533, D761N); details: Ba/F3 cells expressing EGFR D761N; 72 hours
T1 construct: expressed in transfected cells; host or cells: Ba/F3 (retroviral, pBabe-Puro based vector)
Procedure, shortened: (§1)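 72 h viability, CellTiter-Glo luminescence; EGFR-mutant Ba/F3 (IL-3-independent, 1 ng/ml EGF), 7-point TKI dose vs DMSO, technical triplicate, 2–3 biological replicates. Normalized to DMSO; IC50 by variable-slope nonlinear regression at 50% inhibition.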

EGFR Ex19del = biological target: T2, EGFR Ex19del (Homo sapiens, UniProt P00533, DEL746-750); details: Ba/F3 cells expressing EGFR Ex19del; 72 hours
T2 construct: expressed in transfected cells; host or cells: Ba/F3 (retroviral, pBabe-Puro based vector)
Procedure, shortened: as §1

EGFR Ex19del G724S = biological target: T3, EGFR Ex19del G724S (Homo sapiens, UniProt P00533, DEL746-750/G724S); details: Ba/F3 cells expressing EGFR Ex19del G724S; 72 hours
T3 construct: expressed in transfected cells; host or cells: Ba/F3 (retroviral transduction, pBabe-Puro based vectors)
Procedure, shortened: as §1

EGFR Ex19del L718V = biological target: T4, EGFR Ex19del L718V (Homo sapiens, UniProt P00533, DEL746-750/L718V); details: Ba/F3 cells expressing EGFR Ex19del L718V; 72 hours
T4 construct: expressed in transfected cells; host or cells: Ba/F3 (murine pro-B cells), retroviral transduction with pBabe-Puro based vectors
Procedure, shortened: as §1

EGFR Ex19del T790M C797S = biological target: T5, EGFR Ex19del T790M C797S (Homo sapiens, UniProt P00533, C797S/DEL746-750/T790M); details: Ba/F3 cells expressing EGFR Ex19del T790M C797S; 72 hours
T5 construct: expressed in transfected cells; host or cells: Ba/F3 (retroviral transduction, pBabe-Puro based vectors)
Procedure, shortened: as §1

EGFR Ex19del/C797S = biological target: T6, EGFR Ex19del/C797S (Homo sapiens, UniProt P00533, C797S/DEL746-750); details: Ba/F3 cells expressing EGFR Ex19del/C797S; 72 hours
T6 construct: expressed in transfected cells; host or cells: Ba/F3 (murine pro-B cells), retroviral transduction with pBabe-Puro based vectors
Procedure, shortened: as §1

EGFR G719A/R776C = biological target: T7, EGFR G719A/R776C (Homo sapiens, UniProt P00533, G719A/R776C); details: Ba/F3 cells expressing EGFR G719A/R776C; 72 hours
T7 construct: expressed in transfected cells; host or cells: Ba/F3 (retroviral transduction, pBabe-Puro based vectors)
Procedure, shortened: as §1

EGFR K754E = biological target: T8, EGFR K754E (Homo sapiens, UniProt P00533, K754E); details: Ba/F3 cells expressing EGFR K754E; 72 hours
T8 construct: expressed in transfected cells; host or cells: Ba/F3 (retroviral, pBabe-Puro based vector)
Procedure, shortened: as §1

EGFR L747S = biological target: T9, EGFR L747S (Homo sapiens, UniProt P00533, L747S); details: Ba/F3 cells expressing EGFR L747S; 72 hours
T9 construct: expressed in transfected cells; host or cells: Ba/F3 (retroviral transduction, pBabe-Puro based vectors)
Procedure, shortened: as §1

EGFR L858R G724S = biological target: T10, EGFR L858R G724S (Homo sapiens, UniProt P00533, G724S/L858R); details: Ba/F3 cells expressing EGFR L858R G724S; 72 hours
T10 construct: expressed in transfected cells; host or cells: Ba/F3 (murine pro-B cells), retroviral transduction with pBabe-Puro based vectors
Procedure, shortened: as §1

EGFR L858R/T790M/C797S = biological target: T11, EGFR L858R/T790M/C797S (Homo sapiens, UniProt P00533, C797S/L858R/T790M); details: Ba/F3 cells expressing EGFR L858R/T790M/C797S; 72 hours
T11 construct: expressed in transfected cells; host or cells: Ba/F3 (retroviral transduction, pBabe-Puro based vectors)
Procedure, shortened: as §1

EGFR L858R/T790M/L718Q = biological target: T12, EGFR L858R/T790M/L718Q (Homo sapiens, UniProt P00533, L718Q/L858R/T790M); details: Ba/F3 cells expressing EGFR L858R/T790M/L718Q; 72 hours
T12 construct: expressed in transfected cells; host or cells: Ba/F3 (retroviral transduction, pBabe-Puro based vectors)
Procedure, shortened: as §1

EGFR N771dupN = biological target: T13, EGFR N771dupN (Homo sapiens, UniProt P00533, DUP771-771); details: Ba/F3 cells expressing EGFR N771dupN; 72 hours
T13 construct: expressed in transfected cells; host or cells: Ba/F3 (retroviral, pBabe-Puro based vector)
Procedure, shortened: as §1

EGFR N771dupN G724S = biological target: T14, EGFR N771dupN G724S (Homo sapiens, UniProt P00533, DUP771-771/G724S); details: Ba/F3 cells expressing EGFR N771dupN G724S; 72 hours
T14 construct: expressed in transfected cells; host or cells: Ba/F3 (retroviral, pBabe-Puro based vector; created by GeneScript from EGFR G724S, c.2313_2314insAAC)
Procedure, shortened: as §1

EGFR S768I/V769L = biological target: T15, EGFR S768I/V769L (Homo sapiens, UniProt P00533, S768I/V769L); details: Ba/F3 cells expressing EGFR S768I/V769L; 72 hours
T15 construct: host or cells: Ba/F3 (retroviral transduction, pBabe-Puro based vectors)
Procedure, shortened: as §1

## C=CC(=O)N1CCC(Oc2cc3c(Nc4ccc(Cl)c(Cl)c4F)ncnc3cc2OC)CC1 [Poziotinib]
EGFR D761N
  Response of Cells Comprising Classical-Like EGFR Mutations to Second-Generation TKIs: 0.007859
EGFR Ex19del
  Response of Cells Comprising Classical-Like EGFR Mutations to Second-Generation TKIs: 0.07456
EGFR Ex19del G724S
  Response of Cells Comprising PACC EGFR Mutations to Second-Generation TKIs: 0.4952
EGFR Ex19del L718V
  Response of Cells Comprising PACC EGFR Mutations to Second-Generation TKIs: 0.003363
EGFR Ex19del T790M C797S
  Response of Cells Comprising T790M-like-R EGFR Mutations to Second-Generation TKIs: 1862
EGFR Ex19del/C797S
  Response of Cells Comprising PACC EGFR Mutations to Second-Generation TKIs: 0.458
EGFR G719A/R776C
  Response of Cells Comprising PACC EGFR Mutations to Second-Generation TKIs: 0.01624
EGFR K754E
  Response of Cells Comprising Classical-Like EGFR Mutations to Second-Generation TKIs: 0.009588
EGFR L747S
  Response of Cells Comprising PACC EGFR Mutations to Second-Generation TKIs: 0.01641
EGFR L858R G724S
  Response of Cells Comprising PACC EGFR Mutations to Second-Generation TKIs: 0.0068
EGFR L858R/T790M/C797S
  Response of Cells Comprising T790M-like-R EGFR Mutations to Second-Generation TKIs: 935.3
EGFR L858R/T790M/L718Q
  Response of Cells Comprising T790M-like-R EGFR Mutations to Second-Generation TKIs: 70.12
EGFR N771dupN
  Response of Cells Comprising Ex20ins EGFR Mutations to Poziotinib: 0.04003
EGFR N771dupN G724S
  Response of Cells Comprising Ex20ins EGFR Mutations to Poziotinib: 0.2167
EGFR S768I/V769L
  Response of Cells Comprising PACC EGFR Mutations to Second-Generation TKIs: 0.04206
